Test results published in patent publication US20080221094A1, “Metalloprotease inhibitors containing a squaramide moiety” (priority 2007, published 2008).

Biological target: T1, MMP-13 (Homo sapiens, UniProt P45452)
T1 construct: 10 μL of a 50 nM stock solution of catalytic domain of MMP-13 enzyme; purchased Invitek (Berlin) 30100812
Experiment: Assay for Determining MMP-13 Inhibition
Format: biochemical
Details: catalytic domain of MMP-13, fluorescent substrate
Experimental: The typical assay for MMP-13 activity is carried out in assay buffer comprised of 50 mM Tris, pH 7.5, 150 mM NaCl, 5 mM CaCl2 and 0.05% Brij-35. Different concentrations of tested compounds are prepared in assay buffer in 50 μL aliquots. 10 μL of a 50 nM stock solution of catalytic domain of MMP-13 enzyme (produced by Alantos or commercially available from Invitek (Berlin), Cat.# 30100812) is added to the compound solution. The mixture of enzyme and compound in assay buffer is thoroughly mixed and incubated for 10 min at room temperature. Upon the completion of incubation, the assay is started by addition of 40 μL of a 12.5 μM stock solution of MMP-13 fluorescent substrate (Calbiochem, Cat. No. 444235). The time-dependent increase in fluorescence is measured at the 320 nm excitation and 390 nm emission by automatic plate multireader. The IC50 values are calculated from the initial reaction rates.

| SMILES | IC50 [µM] |
| --- | --- |
| Nc1c(N2CCc3ccc(CNC(=O)c4nc(O)nc5ccccc45)cc3C2)c(=O)c1=O [Example 1] | < 0.5 |
| Nc1c(N2CCc3ccc(CNC(=O)c4cnc5ccccc5n4)cc3C2)c(=O)c1=O [2/50] | < 0.5 |
